“And” between values parts separate entries of the source, which are not always exact repeats. Equal values may be shown once. Marks after values point to notes of the source that are not given here.
Key:
Format in all cases: physicochemical
[1] = Separation of Tb/Dy mixture by repeated precipitation using L5 and α-HIBA (Example 20); conditions: for Precipitate concentration [mM] Dy / precipitate concentration [mm] Tb: dissolved to 200 μL
Description: Analogous to Example 19, three reaction mixtures were prepared with the following changes: the rare-earth elements were Tb and Dy, and 0.5 molar equivalents (5 mM reaction concentration) of α-HIBA were used. Otherwise, the experiment was run analogously to Example 19.
The resulting absolute concentrations of both metals in the supernatants and precipitates, as well as calculated values of the separation factor Dy/Tb according to the formula from Example 11), are summarized in Table 14. […] The average separation factor was 2.32.

[2] = Separation of Nd/Pr/Tb/Dy mixture by precipitation using L5 (Example 21); conditions: for precipitate after 20 hrs: dissolved to 500 μL; for precipitate after 20 hrs composition / solution after 20 hrs composition: percent molar
Description: Stock solutions were pipetted into 4 mL glass vials to prepare reaction mixtures with concentrations as follows: • 1. 38.5 mM (1.1 eq) chelator L5 • 2. 35 mM (1 eq) total LnCl3 content (from a stock solution containing a mixture of Ln=Nd, Pr, Tb, and Dy, in a ratio of 3.3:1:1:1, Nd:Pr:Tb:Dy) • 3. 1750 mM (50 eq) MOPS pH=7
The total reaction volume was 3.2 mL. A PTFE-coated stir bar was added to this vial, and the vial was capped and stirred with the temperature maintained at 40° C. by use of an aluminium heating block on a magnetic stirrer. After 20 hours, a 500 μL aliquot of the reaction mixture was taken from the vial. This was centrifuged in a 2 mL plastic Eppendorf centrifuge vial, and the supernatant was carefully pipetted from this and transferred to a new set of tubes. The precipitate was dissolved by addition of 500 μL 1 M HCl, and the absolute concentration of Nd, Pr, Tb, and Dy in both the supernatants and precipitates was determined by ICP-OES.
The percent molar composition of each phase is also provided, showing the minimal selectivity in precipitation under these conditions.

[3] = Separation of Eu/Yb mixture by precipitation from water/acetonitrile solutions using L5 (Example 17); conditions: for Precipitate concentration [mM] Eu / Precipitate concentration [mM] Yb: dissolved to 100 μL
Description: 3 reaction mixtures, differing in acetonitrile content (group A=10%, group B=20%, group C=50%) were prepared in plastic round-bottom 2 mL Eppendorf tubes, each in duplicate. For group A, the stock solutions were pipetted as follows: 5 μL 100 mM aqueous solution of EuCl3; 5 μL 100 mM aqueous solution YbC13; 10 μL 100 mM aqueous solution of compound L5; 20 μL 3 M MOPS buffer pH=7; 50 μL water; 10 μL acetonitrile.
For group B, the stock solutions were pipetted as follows: 5 μL 100 mM aqueous solution of EuCl3; 5 μL 100 mM aqueous solution YbC13; 10 μL 100 mM aqueous solution of compound L5; 20 μL 3 M MOPS buffer pH=7; 40 μL water; 20 μL acetonitrile. For group C, the stock solutions were pipetted as follows: 5 μL 100 mM aqueous solution of EuCl3; 5 μL 100 mM aqueous solution YbC13; 10 μL 100 mM aqueous solution of compound L5; 20 μL 3 M MOPS buffer pH=7; 10 μL water; 50 μL acetonitrile.
Each tube was equipped with one PTFE-coated magnetic stir bar and sealed, and the mixture was stirred on a magnetic stirrer for 24 hours at room temperature. The tubes were then centrifuged and the supernatants were carefully pipetted out and transferred to a new set of tubes. To the precipitate was added 100 μL 1 M HCl and mixture was stirred until full dissolution (overnight at room temperature, pH=0). Concentrations of Eu and Yb in the supernatants and in the re-dissolved precipitates were determined by ICP-OES. The resulting absolute concentrations of both metals in the supernatants and precipitates, as well as calculated values of the separation factor Yb/Eu according to the formula from Example 11), are summarized in Table 11.

[4] = Separation of Nd/Pr/Tb/Dy mixture by precipitation using L5 and acetate (Example 22); conditions: for solution after 20 hrs / solution after 2 days: acetate buffer pH=5.8; for solution after 20 hrs composition / solution after 2 days composition: percent molar
Description: A reaction mixture was prepared analogously to Example 21), with the differences being the use of sodium acetate buffer pH=5.8 in place of MOPS pH=7, an additional aliquot taken for analysis after 2 days, and the lack of ICP-OES analysis on the precipitated portions of the solution — that is, only the supernatants were analysed. Otherwise, the reaction was run analogously to Example 21). The percent molar composition of each is also provided, showing the improved selectivity in precipitation under these conditions, compared to Example 21).

[5] = group A, 10% acetonitrile, mean of duplicates
[6] = group B, 20% acetonitrile, mean of duplicates
[7] = group C, 50% acetonitrile, mean of duplicates

O=C(O)CN1CCN(CC(=O)O)CCN(Cc2cccc3ccccc23)CCN(CC(=O)O)CC1 [L5, 2,2′,2″-(10-(naphthalene-1-ylmethyl)-1,4,7,10-tetraazacyklododekane-1,4,7-triyl)triacetic acid]
Supernatant concentration [mM] Dy ([1]; A, 1st precipitation): 1.41 mM and 1.47 mM and 1.59 mM
Supernatant concentration [mM] Tb ([1]; A, 1st precipitation, 5 mM α-HIBA): 0.77 mM and 0.86 mM
Supernatant concentration [mM] Tb ([1]; A, 1st precipitation, 5 mM α-HIBA, mean): 0.82 mM
Precipitate concentration [mM] Dy ([1]; A, 1st precipitation): 3.02 mM and 2.88 mM and 2.92 mM
Precipitate concentration [mM] Dy ([1]; A, 1st precipitation, mean): 2.94 mM
precipitate concentration [mm] Tb ([1]; A, 1st precipitation, mean): 3.74 mM
Supernatant concentration [mM] Dy ([1]; A, 1st precipitation, mean): 1.49 mM
Supernatant concentration [mM] Dy ([1]; B, 2nd precipitation): 1.27 mM and 1.30 mM and 1.26 mM
Supernatant concentration [mM] Tb ([1]; B, 2nd precipitation): 0.84 mM and 0.90 mM and 0.79 mM
Precipitate concentration [mM] Dy ([1]; B, 2nd precipitation): 2.65 mM and 2.72 mM and 2.76 mM
Precipitate concentration [mM] Dy ([1]; B, 2nd precipitation, mean): 2.71 mM
precipitate concentration [mm] Tb ([1]; B, 2nd precipitation, mean): 4.16 mM
Supernatant concentration [mM] Dy ([1]; C, 3rd precipitation): 1.10 mM and 1.20 mM and 1.08 mM
Supernatant concentration [mM] Tb ([1]; C, 3rd precipitation): 0.90 mM and 0.98 mM and 0.83 mM
Precipitate concentration [mM] Dy ([1]; C, 3rd precipitation): 2.52 mM and 2.42 mM and 2.72 mM
Precipitate concentration [mM] Dy ([1]; C, 3rd precipitation, mean): 2.55 mM
precipitate concentration [mm] Tb ([1]; C, 3rd precipitation, mean): 4.70 mM
Supernatant concentration [mM] Dy ([1]; C, 3rd precipitation, mean): 1.13 mM
solution after 20 hrs ([2]; Ln=Dy): 0.58 mM
precipitate after 20 hrs ([2]; Ln=Dy): 4.69 mM
precipitate after 20 hrs composition ([2]; Ln=Dy): 14.9%
solution after 20 hrs composition ([2]; Ln=Dy): 17.1%
solution after 20 hrs ([2]; Ln=Nd): 1.85 mM
precipitate after 20 hrs ([2]; Ln=Nd): 16.68 mM
precipitate after 20 hrs composition ([2]; Ln=Nd): 53.0%
solution after 20 hrs composition ([2]; Ln=Nd): 54.3%
solution after 20 hrs ([2]; Ln=Pr): 0.47 mM
precipitate after 20 hrs ([2]; Ln=Pr): 4.85 mM
precipitate after 20 hrs composition ([2]; Ln=Pr): 15.4%
solution after 20 hrs composition ([2]; Ln=Pr): 13.9%
solution after 20 hrs ([2]; Ln=Tb): 0.50 mM
precipitate after 20 hrs ([2]; Ln=Tb): 5.28 mM
precipitate after 20 hrs composition ([2]; Ln=Tb): 16.8%
solution after 20 hrs composition ([2]; Ln=Tb): 14.7%
Supernatant concentration [mM] Eu ([3]; group A, 10% acetonitrile): 0.58 mM and 0.35 mM
Supernatant concentration [mM] Yb ([3]; group A, 10% acetonitrile): 4.55 mM and 4.42 mM
Precipitate concentration [mM] Eu ([3]; group A, 10% acetonitrile): 2.78 mM and 2.98 mM
Precipitate concentration [mM] Yb ([3]; group A, 10% acetonitrile): 0.29 mM and 0.36 mM
Precipitate concentration [mM] Eu [3, 5]: 2.88 mM
Precipitate concentration [mM] Yb [3, 5]: 0.32 mM
Supernatant concentration [mM] Eu [3, 5]: 0.47 mM
Supernatant concentration [mM] Yb [3, 5]: 4.48 mM
Supernatant concentration [mM] Eu ([3]; group B, 20% acetonitrile): 0.45 mM and 0.63 mM
Supernatant concentration [mM] Yb ([3]; group B, 20% acetonitrile): 3.99 mM and 4.71 mM
Precipitate concentration [mM] Eu ([3]; group B, 20% acetonitrile): 3.16 mM and 2.95 mM
Precipitate concentration [mM] Yb ([3]; group B, 20% acetonitrile): 0.38 mM and 0.41 mM
Precipitate concentration [mM] Eu [3, 6]: 3.06 mM
Precipitate concentration [mM] Yb [3, 6]: 0.40 mM
Supernatant concentration [mM] Eu [3, 6]: 0.54 mM
Supernatant concentration [mM] Yb [3, 6]: 4.35 mM
Supernatant concentration [mM] Eu ([3]; group C, 50% acetonitrile): 1.51** mM and 0.79** mM
Supernatant concentration [mM] Yb ([3]; group C, 50% acetonitrile): 6.29** mM and 5.77** mM
Precipitate concentration [mM] Eu ([3]; group C, 50% acetonitrile): 3.22 mM and 3.90 mM
Precipitate concentration [mM] Yb ([3]; group C, 50% acetonitrile): 0.42 mM and 0.37 mM
Precipitate concentration [mM] Eu [3, 7]: 3.56 mM
Precipitate concentration [mM] Yb [3, 7]: 0.39 mM
Supernatant concentration [mM] Eu [3, 7]: 1.15 mM
Supernatant concentration [mM] Yb [3, 7]: 6.03 mM
solution after 20 hrs ([4]; Ln=Dy): 5.41 mM
solution after 2 days ([4]; Ln=Dy): 5.00 mM
solution after 20 hrs composition ([4]; Ln=Dy): 16.4%
solution after 2 days composition ([4]; Ln=Dy): 28.1%
solution after 20 hrs ([4]; Ln=Nd): 17.01 mM
solution after 2 days ([4]; Ln=Nd): 6.42 mM
solution after 20 hrs composition ([4]; Ln=Nd): 51.5%
solution after 2 days composition ([4]; Ln=Nd): 36.1%
solution after 20 hrs ([4]; Ln=Pr): 4.78 mM
solution after 2 days ([4]; Ln=Pr): 1.57 mM
solution after 20 hrs composition ([4]; Ln=Pr): 14.5%
solution after 2 days composition ([4]; Ln=Pr): 8.8%
solution after 20 hrs ([4]; Ln=Tb): 5.84 mM
solution after 2 days ([4]; Ln=Tb): 4.77 mM
solution after 20 hrs composition ([4]; Ln=Tb): 17.7%
solution after 2 days composition ([4]; Ln=Tb): 26.9%

— patent publication US20230356105A1, “TETRAAZADODECANE BASED CHELATING AGENTS FOR SEPARATION OF RARE EARTH ELEMENTS AND METHOD THEREFOR” (Ustav Organicke Chemie a Biochemie AV CR V.V.I., priority 2020, published 2023)
